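Five compound concentrations were applied to cells in 96-well plates for 48 hours; endpoints were derived by simple linear interpolation of the resulting dose-response curve. GI50 is the concentration that inhibits growth by half. TGI: concentration producing complete growth inhibition.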
What was measured:
Assay in all cases: NCI anticancer screen, dose series, 48 h
[1] = tested on: UACC-257 melanoma
[2] = tested on: UACC-62 melanoma
[3] = tested on: SF-539 CNS
[4] = tested on: DU-145 prostate
[5] = tested on: LOX IMVI melanoma
[6] = tested on: HCC-2998 colon
[7] = tested on: MOLT-4 leukemia
[8] = tested on: MCF7 breast
[9] = tested on: SW-620 colon
[10] = tested on: OVCAR-5 ovarian
[11] = tested on: A549 NSCLC
[12] = tested on: SN12C renal
[13] = tested on: SK-MEL-2 melanoma
[14] = tested on: HS 578T breast
[15] = tested on: NCI-H226 lung
[16] = tested on: SNB-19 CNS
[17] = tested on: MDA-MB-231 breast
[18] = tested on: HCT-15 colon
[19] = tested on: UO-31 renal
[20] = tested on: T-47D breast
[21] = tested on: 786-0 renal
[22] = tested on: SK-MEL-28 melanoma
[23] = tested on: M14 melanoma
[24] = tested on: IGROV1 ovarian
[25] = tested on: RPMI-8226 leukemia
[26] = tested on: OVCAR-3 ovarian
[27] = tested on: SR leukemia
[28] = tested on: PC-3 prostate
[29] = tested on: EKVX NSCLC
[30] = tested on: BT-549 breast
[31] = tested on: SK-MEL-5 melanoma
[32] = tested on: NCI/ADR-RES ovarian
[33] = tested on: SF-268 CNS
[34] = tested on: HT29 colon
[35] = tested on: MALME-3M melanoma
[36] = tested on: RXF 393 renal
[37] = tested on: A498 renal
[38] = tested on: OVCAR-8 ovarian
[39] = tested on: K-562 leukemia
[40] = tested on: SNB-75 CNS
[41] = tested on: MDA-MB-435
[42] = tested on: HOP-92 NSCLC
[43] = tested on: NCI-H522 lung
[44] = tested on: HOP-62 NSCLC
[45] = tested on: HL-60(TB) leukemia
[46] = tested on: SF-295 CNS
[47] = tested on: NCI-H23 lung
[48] = tested on: CCRF-CEM leukemia
[49] = tested on: ACHN renal
[50] = tested on: NCI-H460 lung
[51] = tested on: SK-OV-3 ovarian
[52] = tested on: TK-10 renal
[53] = tested on: HCT-116 colon
[54] = tested on: COLO 205 colon
[55] = tested on: KM12 colon
[56] = tested on: CAKI-1 renal
[57] = tested on: OVCAR-4 ovarian
[58] = tested on: U251 CNS

N/C(=N\c1nc2ccccc2s1)NC(=O)Nc1cccc2ccccc12
GI50 [1]: > 100 µM
TGI [1]: > 100 µM
GI50 [2]: 0.354 µM
TGI [2]: > 95 µM
GI50 [3]: 0.242 µM
TGI [3]: 0.768 µM
GI50 [4]: 0.356 µM
TGI [4]: 4.2 µM
GI50 [5]: 0.825 µM
TGI [5]: > 100 µM
GI50 [6]: 0.741 µM
TGI [6]: > 100 µM
GI50 [7]: 0.472 µM
TGI [7]: > 100 µM
GI50 [8]: 0.209 µM
TGI [8]: > 100 µM
GI50 [9]: 0.26 µM
TGI [9]: > 100 µM
GI50 [10]: 0.696 µM
TGI [10]: > 100 µM
GI50 [11]: 0.436 µM
TGI [11]: > 100 µM
GI50 [12]: 0.861 µM
TGI [12]: > 100 µM
GI50 [13]: 0.582 µM
TGI [13]: 34 µM
GI50 [14]: 0.302 µM
TGI [14]: 5.41 µM
GI50 [15]: 0.6 µM
TGI [15]: > 68.9 µM
GI50 [16]: 0.574 µM
TGI [16]: > 81.2 µM
GI50 [17]: 0.636 µM
TGI [17]: 3.32 µM
GI50 [18]: 0.126 µM
TGI [18]: > 100 µM
GI50 [19]: 0.802 µM
TGI [19]: > 100 µM
GI50 [20]: 0.556 µM
TGI [20]: > 100 µM
GI50 [21]: 0.603 µM
TGI [21]: > 94.8 µM
GI50 [22]: 12.9 µM
TGI [22]: > 100 µM
GI50 [23]: 0.23 µM
TGI [23]: > 100 µM
GI50 [24]: 0.371 µM
TGI [24]: > 100 µM
GI50 [25]: 0.418 µM
TGI [25]: > 100 µM
GI50 [26]: 0.228 µM
TGI [26]: 1.09 µM
GI50 [27]: 0.0591 µM
TGI [27]: > 100 µM
GI50 [28]: 0.318 µM
TGI [28]: > 100 µM
GI50 [29]: 0.462 µM
TGI [29]: > 100 µM
GI50 [30]: 2.91 µM
TGI [30]: > 100 µM
GI50 [31]: 0.505 µM
TGI [31]: > 100 µM
GI50 [32]: 0.144 µM
TGI [32]: 1.34 µM
GI50 [33]: 2.72 µM
TGI [33]: > 100 µM
GI50 [34]: 0.19 µM
TGI [34]: > 100 µM
GI50 [35]: 1.24 µM
TGI [35]: > 100 µM
GI50 [36]: 0.2 µM
TGI [36]: 0.898 µM
GI50 [37]: 0.347 µM
TGI [37]: 3.72 µM
GI50 [38]: 0.521 µM
TGI [38]: > 100 µM
GI50 [39]: 0.0765 µM
TGI [39]: > 100 µM
GI50 [40]: 0.198 µM
TGI [40]: 1.1 µM
GI50 [41]: 0.0321 µM
TGI [41]: 0.143 µM
GI50 [42]: 1.81 µM
TGI [42]: > 47.3 µM
GI50 [43]: 0.0775 µM
GI50 [44]: 0.406 µM
GI50 [45]: 0.283 µM
TGI [45]: 0.968 µM
GI50 [46]: 0.173 µM
TGI [46]: 1.83 µM
GI50 [47]: 0.462 µM
TGI [47]: > 28.4 µM
GI50 [48]: 0.36 µM
TGI [48]: > 100 µM

COC(=O)[C@@H]1CCCN1C(=O)[C@H]1CCCN1C(=O)[C@@H](Cc1c[nH]c2ccccc12)NC(=S)Nc1cc(C(F)(F)F)cc(C(F)(F)F)c1
GI50 [49]: 2.97 µM
TGI [49]: 11 µM
GI50 [1]: 2.5 µM
TGI [1]: 6.99 µM
GI50 [2]: 2.38 µM
TGI [2]: 6.29 µM
GI50 [3]: 3.83 µM
TGI [3]: 14.3 µM
GI50 [4]: 2.24 µM
TGI [4]: 4.63 µM
GI50 [5]: 1.95 µM
TGI [5]: 4.29 µM
GI50 [6]: 2.05 µM
TGI [6]: 4.3 µM
GI50 [7]: 2.88 µM
TGI [7]: 7.98 µM
GI50 [8]: 2.11 µM
TGI [8]: 5.37 µM
GI50 [9]: 3.19 µM
TGI [9]: 11.2 µM
GI50 [10]: 4.3 µM
TGI [10]: 18.4 µM
GI50 [11]: 2.19 µM
TGI [11]: 5.54 µM
GI50 [12]: 3.14 µM
TGI [12]: 10.9 µM
GI50 [50]: 2.01 µM
TGI [50]: 4.26 µM
GI50 [13]: 2.14 µM
TGI [13]: 3.98 µM
GI50 [14]: 2.94 µM
TGI [14]: 13.4 µM
GI50 [15]: 2.86 µM
TGI [15]: 11.7 µM
GI50 [51]: 6.56 µM
TGI [51]: 18.9 µM
GI50 [16]: 3.78 µM
TGI [16]: 14.4 µM
GI50 [17]: 2.34 µM
TGI [17]: 5.6 µM
GI50 [18]: 3.35 µM
TGI [18]: 12.8 µM
GI50 [19]: 3.23 µM
TGI [19]: 11.6 µM
GI50 [20]: 2.44 µM
TGI [20]: 7.53 µM
GI50 [52]: 2.58 µM
TGI [52]: 6.62 µM
GI50 [21]: 7.5 µM
TGI [21]: 20.2 µM
GI50 [22]: 3.05 µM
TGI [22]: 10.2 µM
GI50 [53]: 1.96 µM
TGI [53]: 4.14 µM
GI50 [54]: 2.06 µM
TGI [54]: 3.97 µM
GI50 [23]: 2.41 µM
TGI [23]: 5.86 µM
GI50 [24]: 2.59 µM
TGI [24]: 6.73 µM
GI50 [25]: 2.62 µM
TGI [25]: 7.93 µM
GI50 [26]: 2.48 µM
TGI [26]: 5.71 µM
GI50 [27]: 2.48 µM
TGI [27]: 6.3 µM
GI50 [28]: 1.75 µM
TGI [28]: 3.98 µM
GI50 [55]: 2.84 µM
TGI [55]: 8.01 µM
GI50 [30]: 3.52 µM
TGI [30]: 11.3 µM
GI50 [31]: 2.45 µM
TGI [31]: 7.11 µM
GI50 [32]: 3.96 µM
TGI [32]: 21.4 µM
GI50 [33]: 3.51 µM
TGI [33]: 12.1 µM
GI50 [34]: 1.97 µM
TGI [34]: 3.84 µM
GI50 [35]: 2.65 µM
TGI [35]: 7.24 µM
GI50 [36]: 2.18 µM
TGI [36]: 7.08 µM
GI50 [56]: 2.75 µM
TGI [56]: 8.99 µM
GI50 [57]: 2.29 µM
TGI [57]: 7.55 µM
GI50 [37]: 1.01 µM
TGI [37]: 7.11 µM
GI50 [38]: 2.55 µM
TGI [38]: 6.4 µM
GI50 [39]: 3.73 µM
TGI [39]: 12.2 µM
GI50 [40]: 1.4 µM
TGI [40]: 6.75 µM
GI50 [41]: 2.9 µM
TGI [41]: 9.07 µM
GI50 [42]: 1.12 µM
TGI [42]: 3.43 µM
GI50 [43]: 2.47 µM
TGI [43]: 6.65 µM
GI50 [44]: 3.25 µM
TGI [44]: 12.1 µM
GI50 [45]: 2.7 µM
TGI [45]: 6.35 µM
GI50 [46]: 2.27 µM
TGI [46]: 5.71 µM
GI50 [58]: 1.92 µM
TGI [58]: 4.52 µM
GI50 [47]: 3.13 µM
TGI [47]: 11.4 µM
GI50 [48]: 3.25 µM
TGI [48]: 11.3 µM

Reference: PubChem BioAssay (NCI)
